From patent publication US20100209404A1, “ENHANCED METHOD FOR PRODUCING STEM-LIKE CELLS FROM SOMATIC CELLS” (UNIVERSITY OF DAYTON, priority 2009, published 2010)

Columns and labels:
[1] = test system: fibroblast growth factor receptor 3 (FGFR3); details: thapsigargin 1 μg/ml in SR-containing medium; cited from earlier work
skin fibroblast cells = details: thapsigargin 1 μg/ml in SR-containing medium; cited from earlier work
[2] = test system: Mouse embryonic skin fibroblast (MEF) cells; assay: Conversion (reprogramming) of MEF cells into stem-like cells in defined medium; type: cell-based
Method: MEF medium: DMEM (Invitrogen 11965-092) supplemented with 10% FBS (16000-044), 100 U/mL penicillin streptomycin (15140-122). Defined medium (Modified/Supplemented SR medium): 400 ml DMEM/F12 (Invitrogen 11330-032), 5 ml non-Essential Amino Acids (Invitrogen 11140-050), 2.5 ml L-Glutamine (Invitrogen 25030-018), 0.1 mM β-mercaptoethanol (Sigma 7522, add 3.5 μl) and 100 ml Knockout Serum Replacer (Invitrogen 10828-028). 4 ng/mL bFGF (13256-029), 1000/ml unit of ESGRO™ (Lif) (Chemicon Cat #ESG1107). For each experiment, the necessary amount of defined medium was aliquoted, and then freshly prepared bFGF and Lif were added to the medium each time just in advance of use. (Lif was used as a component of such medium for mouse cell culture only.) FGF stock was made by adding 1 ml of DMEM/F12 to a vial of 10 μg of FGF, with the 10 μg of FGF dissolved in the DMEM/F12 and then aliquoted into five vials. Stock vials were then stored at −20° C. For each 30 ml of defined medium, 12 μl of the stock bFGF was added. Arachidonic acid (AA) stock was made by dissolving 10 mg of AA (from porcine liver A3555-10M Sigma) in 1 ml of DMSO. Dissolved AA was then aliquoted into five vials, and then store at −20° C. ([…]). Before use in defined medium, the 10 mg/ml AA was diluted with 1×PBS at a 1:5 ratio. […]

skin fibroblasts = details: SR reconstituted while eliminating individual supplements; cited from earlier work
ES-like cells = details: bFGF (4 ng/ml) and Lif added together to SR-containing medium; cited from earlier work

Compound: C/C=C(/C)C(=O)O[C@H]1C(C)=C2[C@H]([C@@H]1OC(=O)CCCCCCC)[C@@](C)(OC(C)=O)C[C@H](OC(=O)CCC)[C@@]1(O)[C@H]2OC(=O)[C@@]1(C)O [Thapsigargin]
- up-regulated expression of FGFR3 [1]: prevented
- conversion of skin fibroblast cells into stem cell-like cells (skin fibroblast cells): prevented

Compound: CCCCC/C=C\C/C=C\C/C=C\C/C=C\CCCC(=O)O [arachidonic acid, all-cis 5,8,11,14-eicosatetraenoic acid]
- conversion efficiency of somatic cells ([2]; arachidonic acid 2 mg/L added to defined medium, in isolation or together with pluronic F68): increase the conversion efficiency
- role of SR component in reprogramming somatic cells (e.g., fibroblasts) into stem-like cells (skin fibroblasts): critical components

Compound: bFGF: basic fibroblast growth factor
- efficient reprogramming of MEF cells to stem-like cells ([2]; freshly prepared, bFGF 4 ng/mL and Lif 1000/ml unit added to defined medium immediately prior to every conversion or passage): important to ensuring efficient reprogramming
- differentiation of the ES-like cells (ES-like cells): preventing differentiation
- division of the ES-like cells (ES-like cells): promote division

Compound: lipid-rich BSA: lipid-rich BSA (AlbuMax I, Invitrogen), component of serum replacement
- role of SR component in reprogramming somatic cells (e.g., fibroblasts) into stem-like cells (skin fibroblasts): critical components
